The target in test [1] is human cloned 5-HT6 receptors (Homo sapiens, UniProt P50406). The test can be described thus: 5-HT6R radioligand competition binding assays. In general terms: Loss of bound radioactivity is the signal in a displacement assay; it reports binding, not function.
A further test concerns postmenopausal women. As to conditions: 120 mg/day, but not 60 mg/day; cited from earlier work.

SMILES strings stand for the structures. Read-outs that look alike come from different tables or passages of the source.

Chain of human cloned 5-HT6 receptors (P50406 whole entry): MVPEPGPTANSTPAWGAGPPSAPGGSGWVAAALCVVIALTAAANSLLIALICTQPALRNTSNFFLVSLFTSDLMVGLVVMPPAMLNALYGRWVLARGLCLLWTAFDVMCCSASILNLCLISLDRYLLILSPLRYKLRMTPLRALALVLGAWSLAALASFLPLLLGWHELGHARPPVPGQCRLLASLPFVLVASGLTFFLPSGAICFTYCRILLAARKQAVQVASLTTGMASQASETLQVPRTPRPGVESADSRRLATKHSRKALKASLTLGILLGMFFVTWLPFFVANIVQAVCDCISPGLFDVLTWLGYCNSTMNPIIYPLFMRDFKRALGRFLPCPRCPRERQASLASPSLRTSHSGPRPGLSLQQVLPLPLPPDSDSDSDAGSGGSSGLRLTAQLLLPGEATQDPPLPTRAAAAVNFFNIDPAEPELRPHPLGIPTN

One may read the Ki as the equilibrium dissociation constant of an inhibitor or competing ligand from its target. Take `CC(NCCC(c1ccccc1)c1ccccc1)c1ccccc1` (stereo not drawn) [Compound 5]: the Ki is more than 10 µM in test [1] and more than 10 µM in test [1] (5-HT6R, Table 6, unit inferred). `O=c1cc(N2CCOCC2)oc2c(-c3ccccc3)cccc12` [Compound 7]: the Ki in test [1] (5-HT6R, Table 6, unit inferred) was more than 10 µM.

Regarding `COc1ccccc1N1CCN(CCCCNC(=O)c2ccc3ccccc3c2)CC1` [Compound 9], the Ki in test [1] was more than 10 µM; in test [1] (5-HT6R, Table 6, unit inferred) it was more than 10 µM. In the case of `O=C(c1ccc(OCCN2CCCCC2)cc1)c1c(-c2ccc(O)cc2)sc2cc(O)ccc12` [Compound 10, raloxifene], in the test with postmenopausal women, the “Risk of cognitive impairment” value was “reduced risk of cognitive impairment”.

The record behind these values is paper PMC3401608 (Journal of Medicinal Chemistry, 2012).
